Laboratory results published in article PMC9255384 (Journal of medicinal chemistry, 2021).

Tested on: Caco-2
Assay: Monolayer Caco-2 permeability experiment
Type: in vitro ADME

Row | SMILES | cellular permeability (Caco-2)
1 | C=CC(=O)Nc1ccc(OC)c(Nc2cc(-c3[nH]c(SC)nc3-c3cccc(NC(=O)c4c(F)ccc(O)c4CN4C(=O)c5ccccc5C4=O)c3)ccn2)c1 [Compound 1, N-(3-(5-(2-((5-acrylamido-2-methoxyphenyl)amino)pyridin-4-yl)-2-(methylthio)-1H-imidazol-4-yl)phenyl)-2-((1,3-dioxoisoindolin-2-yl)methyl)-6-fluoro-3-hydroxybenzamide] | limited cellular permeability
2 | CSc1nc(-c2cccc(NC(=O)c3c(F)ccc(O)c3CN3C(=O)c4ccccc4C3=O)c2)c(-c2ccnc(NC(C)=O)c2)[nH]1 [Compound 2c, N-(3-(5-(2-acetamidopyridin-4-yl)-2-(methylthio)-1H-imidazol-4-yl)phenyl)-2-((1,3-dioxoisoindolin-2-yl)methyl)-6-fluoro-3-hydroxybenzamide] | limited cellular permeability
